Laboratory results as given in ChEMBL document CHEMBL5137040, “Identification of non-ATP-competitive α-carboline inhibitors of the anaplastic lymphoma kinase” (Eur J Med Chem, 2022).
The source made the active and inactive calls. The calls are words filed in the database; no cut-off is given here.

molecular target: ALK tyrosine kinase receptor (Homo sapiens, UniProt Q9UM73); assay: not given; assay type: cell-based, Sf9; settings: not given
Sequence (Q9UM73 whole entry): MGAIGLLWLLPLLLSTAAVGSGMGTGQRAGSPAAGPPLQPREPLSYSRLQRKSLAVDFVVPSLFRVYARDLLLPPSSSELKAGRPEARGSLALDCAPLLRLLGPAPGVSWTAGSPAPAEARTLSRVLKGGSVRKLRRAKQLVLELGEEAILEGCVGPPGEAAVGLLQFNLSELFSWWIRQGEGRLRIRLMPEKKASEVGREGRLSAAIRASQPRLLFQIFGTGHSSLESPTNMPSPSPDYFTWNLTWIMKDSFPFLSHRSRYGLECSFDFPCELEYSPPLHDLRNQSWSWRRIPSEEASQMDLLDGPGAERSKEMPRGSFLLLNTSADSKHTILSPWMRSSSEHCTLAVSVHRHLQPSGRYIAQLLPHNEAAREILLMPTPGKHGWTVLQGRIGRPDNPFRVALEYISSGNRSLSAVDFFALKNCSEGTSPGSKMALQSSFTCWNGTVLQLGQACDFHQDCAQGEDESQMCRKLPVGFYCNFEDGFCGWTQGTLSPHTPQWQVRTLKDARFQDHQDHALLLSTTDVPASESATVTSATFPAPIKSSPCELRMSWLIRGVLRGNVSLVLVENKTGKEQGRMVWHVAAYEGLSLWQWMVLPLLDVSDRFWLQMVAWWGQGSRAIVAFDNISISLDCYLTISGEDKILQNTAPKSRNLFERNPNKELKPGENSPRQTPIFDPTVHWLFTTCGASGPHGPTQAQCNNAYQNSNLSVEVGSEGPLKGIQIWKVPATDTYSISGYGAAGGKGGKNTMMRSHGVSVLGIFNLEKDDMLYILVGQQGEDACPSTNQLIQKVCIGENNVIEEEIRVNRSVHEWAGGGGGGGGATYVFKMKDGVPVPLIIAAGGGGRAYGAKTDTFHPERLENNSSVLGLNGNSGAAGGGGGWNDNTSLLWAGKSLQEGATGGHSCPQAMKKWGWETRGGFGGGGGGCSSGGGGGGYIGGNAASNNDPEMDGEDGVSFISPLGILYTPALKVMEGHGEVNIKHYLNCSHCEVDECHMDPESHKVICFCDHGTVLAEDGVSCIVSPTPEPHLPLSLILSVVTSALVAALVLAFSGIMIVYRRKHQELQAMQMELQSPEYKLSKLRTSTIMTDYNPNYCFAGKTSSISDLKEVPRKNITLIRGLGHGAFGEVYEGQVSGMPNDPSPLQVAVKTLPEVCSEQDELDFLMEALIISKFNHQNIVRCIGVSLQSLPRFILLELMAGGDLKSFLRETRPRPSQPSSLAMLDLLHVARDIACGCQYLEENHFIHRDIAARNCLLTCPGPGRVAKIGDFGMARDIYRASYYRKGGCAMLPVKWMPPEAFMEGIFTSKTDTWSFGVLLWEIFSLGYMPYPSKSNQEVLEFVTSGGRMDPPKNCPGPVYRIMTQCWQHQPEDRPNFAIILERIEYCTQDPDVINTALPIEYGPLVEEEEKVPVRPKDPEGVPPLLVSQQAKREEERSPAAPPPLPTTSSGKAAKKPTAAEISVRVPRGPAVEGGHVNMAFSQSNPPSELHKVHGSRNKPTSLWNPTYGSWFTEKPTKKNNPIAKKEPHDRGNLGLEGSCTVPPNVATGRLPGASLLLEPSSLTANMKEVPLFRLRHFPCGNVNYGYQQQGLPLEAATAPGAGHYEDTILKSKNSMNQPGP

Row | Structure (SMILES) | IC50 [µM]
1 | COc1ccc(-c2ccnc3[nH]c4ccccc4c23)cc1 | > 10
2 | COC(=O)c1cc(-c2ccnc3[nH]c4ccc(-c5ccc(N6CCN(C)CC6)cc5)cc4c23)ccc1Cc1ccccc1 | > 10

Continued, values first:

Row | IC50 [µM] | Structure (SMILES)
3 | > 10 | COc1cc(C(O)c2ccccc2)c(O)cc1-c1ccnc2[nH]c3ccc(-c4ccc(N5CCN(C)CC5)cc4)cc3c12 (centres undefined)
4 | > 10 | CCN(CC)CCSCC(=O)c1ccc2[nH]c3nccc(Cl)c3c2c1
5 | > 10 | c1ccc(Cc2ccc(-c3ccnc4[nH]c5ccc(-c6ccc(N7CCN(Cc8cccnc8)CC7)cc6)cc5c34)cc2)cc1
6 | > 10 | CN(C)/C=C/C(=O)c1ccc2[nH]c3nccc(-c4ccc(Cc5ccccc5)cc4)c3c2c1
7 | > 10 | O=[N+]([O-])c1ccccc1Nc1ccnc2[nH]c3ccccc3c12
8 | > 10 | C#Cc1ccnc2[nH]c3ccc(-c4ccc(N5CCN(C)CC5)cc4)cc3c12

system: not listed separately; assay: Antiproliferative activity against NPM-ALK positive human SUPM2 cells assessed as inhibition of cell growth incubated for 72 hrs by MTS assay; assay type: functional, cell-based; settings: SUP-M2, 72 h

Row | Structure (SMILES) | IC50 [µM]
9 | CN1CCN(c2ccc(-c3ccc4[nH]c5nccc(-c6ccc(Cc7ccccc7)cc6)c5c4c3)cc2)CC1 | 1.1

system: BaF3; assay: Cytotoxicity against mouse BaF3 cells harboring crizotinib resistant NPM/ALK I1171N mutant assessed as inhibition of cell proliferation incubated for 72 hrs by MTS assay; assay type: functional, cell-based; settings: BaF3, 72 h

Row | Structure (SMILES) | IC50 [µM]
10 | CN1CCN(c2ccc(-c3ccc4[nH]c5nccc(-c6ccc(Cc7ccccc7)cc6)c5c4c3)cc2)CC1 | 1.9

system: KARPAS-299; assay: Antiproliferative activity against NPM-ALK positive human KARPAS-299 cells assessed as inhibition of cell growth incubated for 72 hrs by MTS assay; assay type: functional, cell-based; settings: KARPAS-299, 72 h

Row | IC50 [µM] | Structure (SMILES)
11 | 0.7 | CN1CCN(c2ccc(-c3ccc4[nH]c5nccc(-c6ccc(Cc7ccccc7)cc6)c5c4c3)cc2)CC1

system: BaF3; assay: Cytotoxicity against mouse BaF3 cells harboring crizotinib resistant NPM/ALK F1174L mutant assessed as inhibition of cell proliferation incubated for 72 hrs by MTS assay; assay type: functional, cell-based; settings: BaF3, 72 h

Row | Structure (SMILES) | IC50 [µM]
12 | CN1CCN(c2ccc(-c3ccc4[nH]c5nccc(-c6ccc(Cc7ccccc7)cc6)c5c4c3)cc2)CC1 | 2.4

molecular target: Fibroblast growth factor receptor 1 (Homo sapiens) (UniProt P11362); assay: Inhibition of recombinant FGFR1 (unknown origin) at 10 uM by kinase selectivity assay relative to control; settings: not given
Sequence (P11362 22-822 limits assumed): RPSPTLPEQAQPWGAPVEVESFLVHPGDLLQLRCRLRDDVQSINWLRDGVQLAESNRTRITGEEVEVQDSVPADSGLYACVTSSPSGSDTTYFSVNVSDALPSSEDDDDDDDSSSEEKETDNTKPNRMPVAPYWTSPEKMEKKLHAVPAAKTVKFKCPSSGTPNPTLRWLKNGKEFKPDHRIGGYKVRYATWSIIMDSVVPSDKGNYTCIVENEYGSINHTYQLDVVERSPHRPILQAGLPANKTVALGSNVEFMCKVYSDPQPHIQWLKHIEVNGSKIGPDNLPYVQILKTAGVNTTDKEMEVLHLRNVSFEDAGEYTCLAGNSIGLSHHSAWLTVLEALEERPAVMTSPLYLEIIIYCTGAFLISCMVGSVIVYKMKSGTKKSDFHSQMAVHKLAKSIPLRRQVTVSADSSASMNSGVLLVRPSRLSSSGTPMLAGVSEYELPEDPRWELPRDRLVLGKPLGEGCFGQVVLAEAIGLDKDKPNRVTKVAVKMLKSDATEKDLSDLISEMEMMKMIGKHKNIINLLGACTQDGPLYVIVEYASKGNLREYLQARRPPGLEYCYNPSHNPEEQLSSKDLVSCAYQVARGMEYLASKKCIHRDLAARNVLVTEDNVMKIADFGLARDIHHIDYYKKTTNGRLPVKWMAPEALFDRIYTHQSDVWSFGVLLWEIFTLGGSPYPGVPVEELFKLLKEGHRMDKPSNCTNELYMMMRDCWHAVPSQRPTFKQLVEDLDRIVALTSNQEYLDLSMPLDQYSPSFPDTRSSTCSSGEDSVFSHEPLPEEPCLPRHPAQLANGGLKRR

Row | inhibition [%] | Structure (SMILES)
13 | > 90 | CN1CCN(c2ccc(-c3ccc4[nH]c5nccc(-c6ccc(Cc7ccccc7)cc6)c5c4c3)cc2)CC1

system: KARPAS-299; assay: Antitumor activity against human KARPAS-299 cells xenografted in nude mouse assessed as tumor growth inhibition at 100 mg/kg, po administered twice daily for 24 days; assay type: functional; parameters: scale not given: the % may be the effect or the level left; settings: time 24 day

Row | Structure (SMILES) | Activity [%]
14 | CN1CCN(c2ccc(-c3ccc4[nH]c5nccc(-c6ccc(Cc7ccccc7)cc6)c5c4c3)cc2)CC1 | 80

system: not listed separately; assay: Half-life in po dosed nude mouse; assay type: ADME, organism-based; settings: in vivo

Row | half-life [h] | Structure (SMILES)
15 | < 24 | CN1CCN(c2ccc(-c3ccc4[nH]c5nccc(-c6ccc(Cc7ccccc7)cc6)c5c4c3)cc2)CC1

system: BaF3; assay: Cytotoxicity against mouse BaF3 cells harboring crizotinib resistant NPM/ALK C1156Y mutant assessed as inhibition of cell proliferation incubated for 72 hrs by MTS assay; assay type: functional, cell-based; settings: BaF3, 72 h

Row | Structure (SMILES) | IC50 [µM]
16 | CN1CCN(c2ccc(-c3ccc4[nH]c5nccc(-c6ccc(Cc7ccccc7)cc6)c5c4c3)cc2)CC1 | 1.3

molecular target: Insulin-like growth factor 1 receptor (Homo sapiens) (UniProt P08069); assay: Inhibition of recombinant IGF1R (unknown origin) at 10 uM by kinase selectivity assay relative to control; settings: not given
Sequence (P08069 31-736 limits assumed): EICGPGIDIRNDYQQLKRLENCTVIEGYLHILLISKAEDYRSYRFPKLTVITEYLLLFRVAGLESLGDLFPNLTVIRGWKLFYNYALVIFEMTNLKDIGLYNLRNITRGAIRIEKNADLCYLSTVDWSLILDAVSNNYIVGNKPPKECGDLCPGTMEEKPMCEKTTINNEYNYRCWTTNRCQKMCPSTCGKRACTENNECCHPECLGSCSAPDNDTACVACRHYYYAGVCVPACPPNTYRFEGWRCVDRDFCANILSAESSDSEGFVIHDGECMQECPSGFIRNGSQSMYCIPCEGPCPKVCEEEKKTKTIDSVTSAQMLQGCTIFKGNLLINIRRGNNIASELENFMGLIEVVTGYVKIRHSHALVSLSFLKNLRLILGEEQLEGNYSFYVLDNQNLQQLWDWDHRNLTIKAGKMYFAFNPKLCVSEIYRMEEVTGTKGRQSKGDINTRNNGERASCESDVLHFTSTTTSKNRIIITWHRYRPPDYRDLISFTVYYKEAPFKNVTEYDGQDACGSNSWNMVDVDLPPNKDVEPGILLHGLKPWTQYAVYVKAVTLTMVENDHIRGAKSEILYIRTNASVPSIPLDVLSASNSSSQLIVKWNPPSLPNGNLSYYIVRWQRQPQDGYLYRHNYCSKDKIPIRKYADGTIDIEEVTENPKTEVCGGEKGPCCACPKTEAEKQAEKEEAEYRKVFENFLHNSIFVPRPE
Sequence (P08069 741-1367 limits assumed): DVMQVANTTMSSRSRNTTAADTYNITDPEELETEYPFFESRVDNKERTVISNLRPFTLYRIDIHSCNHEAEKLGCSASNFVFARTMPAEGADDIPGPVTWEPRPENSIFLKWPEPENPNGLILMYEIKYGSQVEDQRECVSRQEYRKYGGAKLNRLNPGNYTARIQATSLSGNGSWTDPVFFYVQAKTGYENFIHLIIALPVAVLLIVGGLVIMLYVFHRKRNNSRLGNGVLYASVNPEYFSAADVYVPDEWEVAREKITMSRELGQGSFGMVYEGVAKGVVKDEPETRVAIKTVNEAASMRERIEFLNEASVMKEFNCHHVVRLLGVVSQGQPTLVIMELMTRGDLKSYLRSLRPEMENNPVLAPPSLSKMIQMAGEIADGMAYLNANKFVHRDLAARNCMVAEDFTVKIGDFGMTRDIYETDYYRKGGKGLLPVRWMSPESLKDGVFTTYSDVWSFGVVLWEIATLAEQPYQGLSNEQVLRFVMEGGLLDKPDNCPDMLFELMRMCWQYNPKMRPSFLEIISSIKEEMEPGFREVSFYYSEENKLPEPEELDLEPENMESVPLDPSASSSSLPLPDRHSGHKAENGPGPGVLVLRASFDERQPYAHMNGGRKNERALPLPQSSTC

Row | inhibition [%] | Structure (SMILES)
17 | > 90 | CN1CCN(c2ccc(-c3ccc4[nH]c5nccc(-c6ccc(Cc7ccccc7)cc6)c5c4c3)cc2)CC1

system: SU-DHL-1; assay: Antiproliferative activity against NPM-ALK positive human SU-DHL-1 cells assessed as inhibition of cell growth incubated for 72 hrs by MTS assay; assay type: functional, cell-based; settings: SU-DHL-1, 72 h

Row | IC50 [µM] | Structure (SMILES)
18 | 0.8 | CN1CCN(c2ccc(-c3ccc4[nH]c5nccc(-c6ccc(Cc7ccccc7)cc6)c5c4c3)cc2)CC1

system: BaF3; assay: cells; settings: Mus musculus, BaF3, 72 h

Row | IC50 [µM] | Structure (SMILES)
19 | 13 | C[N+]1(C)CCN(c2ccc(-c3ccc4[nH]c5nccc(C#Cc6ccccc6C(F)(F)F)c5c4c3)cc2)CC1
20 | 18 | CN1CCN(c2ccc(-c3ccc4[nH]c5nccc(-c6ccc(C(=O)c7ccccc7)cc6)c5c4c3)cc2)CC1
21 | 8.7 | CN1CCN(c2ccc(-c3ccc4[nH]c5nccc(-c6ccc(Cc7ccccc7)cc6)c5c4c3)cc2)CC1

molecular target: Vascular endothelial growth factor receptor 2 (Homo sapiens) (UniProt P35968); assay: Inhibition of recombinant VEGFR2 (unknown origin) at 10 uM by kinase selectivity assay relative to control; settings: not given

Row | inhibition [%] | Structure (SMILES)
22 | > 90 | CN1CCN(c2ccc(-c3ccc4[nH]c5nccc(-c6ccc(Cc7ccccc7)cc6)c5c4c3)cc2)CC1

system: BaF3; assay: cells; settings: Mus musculus, BaF3, 72 h; remark: another data set of the same source

Row | IC50 [µM] | Structure (SMILES)
23 | 2.1 | C[N+]1(C)CCN(c2ccc(-c3ccc4[nH]c5nccc(C#Cc6ccccc6C(F)(F)F)c5c4c3)cc2)CC1
24 | 1.7 | CN1CCN(c2ccc(-c3ccc4[nH]c5nccc(-c6ccc(C(=O)c7ccccc7)cc6)c5c4c3)cc2)CC1

system: not listed separately; assay: Tmax in po dosed nude mouse; assay type: ADME, organism-based; settings: in vivo

Row | Tmax [h] | Structure (SMILES)
25 | 4 | CN1CCN(c2ccc(-c3ccc4[nH]c5nccc(-c6ccc(Cc7ccccc7)cc6)c5c4c3)cc2)CC1

system: SUPM2; assay: not given; assay type: functional, cell-based; settings: Homo sapiens, dose 0.1-10 µM, time 72.0 hrs

Row | Structure (SMILES) | Activity
26 | CN1CCN(c2ccc(-c3ccc4[nH]c5nccc(-c6ccc(Cc7ccccc7)cc6)c5c4c3)cc2)CC1 | Active

system: SUPM2; assay: Antiproliferative activity against human SUPM2 cells harboring crizotinib resistant ALK S1206C mutant assessed as inhibition of cell growth at 0.1 to 10 uM incubated for 72 hrs by MTS assay; assay type: functional, cell-based; settings: dose 0.1-10 µM

Row | Structure (SMILES) | Activity
27 | CN1CCN(c2ccc(-c3ccc4[nH]c5nccc(-c6ccc(Cc7ccccc7)cc6)c5c4c3)cc2)CC1 | Active

molecular target: Epidermal growth factor receptor (Homo sapiens) (UniProt P00533); assay: Inhibition of recombinant EGFR (unknown origin) at 10 uM by kinase selectivity assay relative to control; settings: not given
Sequence (P00533 whole entry): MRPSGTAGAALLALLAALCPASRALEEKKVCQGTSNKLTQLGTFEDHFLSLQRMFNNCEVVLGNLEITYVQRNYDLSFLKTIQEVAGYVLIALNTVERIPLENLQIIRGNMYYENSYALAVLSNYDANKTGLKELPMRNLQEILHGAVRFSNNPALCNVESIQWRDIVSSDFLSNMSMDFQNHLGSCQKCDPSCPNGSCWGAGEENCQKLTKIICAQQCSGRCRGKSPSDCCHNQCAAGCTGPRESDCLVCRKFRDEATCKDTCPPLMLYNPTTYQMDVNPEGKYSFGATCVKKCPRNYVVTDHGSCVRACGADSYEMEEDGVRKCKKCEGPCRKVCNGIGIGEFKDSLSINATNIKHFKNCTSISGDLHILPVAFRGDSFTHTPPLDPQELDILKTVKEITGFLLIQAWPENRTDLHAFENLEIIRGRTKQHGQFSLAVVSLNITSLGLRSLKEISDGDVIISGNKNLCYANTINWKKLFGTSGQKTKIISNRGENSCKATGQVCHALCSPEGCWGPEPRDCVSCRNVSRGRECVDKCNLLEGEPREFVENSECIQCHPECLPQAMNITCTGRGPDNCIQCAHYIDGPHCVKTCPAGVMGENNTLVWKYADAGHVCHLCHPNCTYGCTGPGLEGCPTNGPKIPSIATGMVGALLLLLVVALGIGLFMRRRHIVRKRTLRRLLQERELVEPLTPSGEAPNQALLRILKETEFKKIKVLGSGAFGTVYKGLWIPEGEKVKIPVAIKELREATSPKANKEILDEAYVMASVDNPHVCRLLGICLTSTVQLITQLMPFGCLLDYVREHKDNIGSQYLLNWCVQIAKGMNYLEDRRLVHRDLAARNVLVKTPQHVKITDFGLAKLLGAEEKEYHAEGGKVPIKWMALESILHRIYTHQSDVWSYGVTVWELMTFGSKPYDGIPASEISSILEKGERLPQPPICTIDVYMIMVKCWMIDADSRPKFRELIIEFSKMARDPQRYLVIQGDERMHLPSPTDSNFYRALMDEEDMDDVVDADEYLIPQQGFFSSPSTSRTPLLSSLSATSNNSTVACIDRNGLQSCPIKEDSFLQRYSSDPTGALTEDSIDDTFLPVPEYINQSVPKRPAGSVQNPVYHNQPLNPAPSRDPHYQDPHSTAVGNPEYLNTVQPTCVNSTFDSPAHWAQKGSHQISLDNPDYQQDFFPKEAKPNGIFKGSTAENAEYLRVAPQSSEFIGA

Row | inhibition [%] | Structure (SMILES)
28 | > 90 | CN1CCN(c2ccc(-c3ccc4[nH]c5nccc(-c6ccc(Cc7ccccc7)cc6)c5c4c3)cc2)CC1

system: BaF3; assay: cells; settings: Mus musculus, BaF3, 72 h; remark: another data set of the same source

Row | IC50 [µM] | Structure (SMILES)
29 | 2.6 | C[N+]1(C)CCN(c2ccc(-c3ccc4[nH]c5nccc(C#Cc6ccccc6C(F)(F)F)c5c4c3)cc2)CC1
30 | 6.1 | CN1CCN(c2ccc(-c3ccc4[nH]c5nccc(-c6ccc(C(=O)c7ccccc7)cc6)c5c4c3)cc2)CC1

system: KARPAS-299; assay: Antiproliferative activity against human KARPAS-299 cells harboring crizotinib resistant ALK L1196Q mutant assessed as inhibition of cell growth at 0.1 to 10 uM incubated for 72 hrs by MTS assay; assay type: functional, cell-based; settings: dose 0.1-10 µM

Row | Structure (SMILES) | Activity
31 | CN1CCN(c2ccc(-c3ccc4[nH]c5nccc(-c6ccc(Cc7ccccc7)cc6)c5c4c3)cc2)CC1 | Active

system: SUPM2; assay: Antiproliferative activity against human SUPM2 cells harboring crizotinib resistant ALK […] mutant assessed as inhibition of cell growth at 0.1 to 10 uM incubated for 72 hrs by MTS assay; assay type: functional, cell-based; settings: dose 0.1-10 µM

Row | Structure (SMILES) | Activity
32 | CN1CCN(c2ccc(-c3ccc4[nH]c5nccc(-c6ccc(Cc7ccccc7)cc6)c5c4c3)cc2)CC1 | Active

system: HL-60; assay: Antiproliferative activity against NPM-ALK negative human HL-60 cells assessed as inhibition of cell growth incubated for 72 hrs by MTS assay; assay type: functional, cell-based; settings: HL-60, 72 h

Row | IC50 [µM] | Structure (SMILES)
33 | 17 | CN1CCN(c2ccc(-c3ccc4[nH]c5nccc(-c6ccc(Cc7ccccc7)cc6)c5c4c3)cc2)CC1

system: KARPAS-299; assay: Antitumor activity against crizotinib-resistant human KARPAS-299 cells harboring L1196Q mutant xenografted in nude mouse assessed as tumor growth inhibition at 100 mg/kg, po administered twice daily for 24 days; assay type: functional, organism-based; settings: time 24.0 day

Row | Structure (SMILES) | Activity
34 | CN1CCN(c2ccc(-c3ccc4[nH]c5nccc(-c6ccc(Cc7ccccc7)cc6)c5c4c3)cc2)CC1 | Active
